In patent US20250145625A1, “PYRAZOLOPYRIMIDINE DERIVATIVE AND ANTICANCER PHARMACEUTICAL COMPOSITION CONTAINING SAME AS ACTIVE INGREDIENT” (KOREA RESEARCH INSTITUTE OF CHEMICAL TECHNOLOGY, priority 2021, published 2025):
pIC50: −log10 of the molar value.

Legend:
[1] = system: HCT116 colon cancer cell line; assay: Cytotoxicity in TTK-expressed HCT116 cells; type: cell-based; details: Homo sapiens, HCT-116, 120 h, 5 days
Protocol: To determine the cytotoxicity of a compound represented by Chemical Formula 1 according to the present invention to HCT116 cells, the following test was conducted.
HCT116 colon cancer cell line purchased from ATCC was inoculated into each well of a 96-well plate at a volume of 90 μL containing 2,000 cells. Thereafter, an example compound of the present invention was added to respective wells at concentrations of […], 3 μM, 1 μM, 0.3 μM, 0.1 μM, and 0 μM, and the cells were cultured in a cell incubator at 37° C. for 5 days. After 5 days, the number of cells was measured by CCK8 test method, and the cytotoxicity was determined by calculating the IC50 value for cytotoxicity of each compound.

[2] = system: MDA-MB-231 triple negative breast cancer cell line; assay: Cytotoxicity in TTK-expressed MDA-MB-231 cells; type: cell-based; details: Homo sapiens, MDA-MB-231, 120 h, 5 days
Protocol: To determine the cytotoxicity of a compound represented by Chemical Formula 1 according to the present invention to MDA-MB-231 cells, the following test was conducted.
MDA-MB-231 triple negative breast cancer cell line purchased from ATCC was inoculated into each well of a 96-well plate at a volume of 90 μL containing 2,000 cells. Thereafter, an example compound of the present invention was added to respective wells at concentrations of 10 μM, 3 μM, 1 μM, 0.3 μM, 0.1 μM, and 0 μM, and the cells were cultured in a cell incubator at 37° C. for 5 days. Five days later, 10 μL of Cyto X solution (manufacturer: LPS Solution) was added to each of the wells, and the absorbance was measured at 450 nm using an Epoch microplate spectrophotometer (manufacturer: BioTek Instruments Inc.) according to the product's user guide. For cytotoxicity, the IC50 value for cytotoxicity of each compound was calculated by quantifying the number of cells using the measured value.

[3] = target: recombinant human TTK protein (Homo sapiens (Human), UniProt P33981); assay: Evaluation of TTK activity inhibitory ability (scintillation counting); type: biochemical; details: TTK inhibitory activity; read-out: IC50;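 also: reaction stopped with 0.5% phosphoric acid, spotted on P30 filter, TTK activity counted by scintillation, uninhibited no-compound wells taken as 100% control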
Sequence of recombinant human TTK protein (P33981 whole entry): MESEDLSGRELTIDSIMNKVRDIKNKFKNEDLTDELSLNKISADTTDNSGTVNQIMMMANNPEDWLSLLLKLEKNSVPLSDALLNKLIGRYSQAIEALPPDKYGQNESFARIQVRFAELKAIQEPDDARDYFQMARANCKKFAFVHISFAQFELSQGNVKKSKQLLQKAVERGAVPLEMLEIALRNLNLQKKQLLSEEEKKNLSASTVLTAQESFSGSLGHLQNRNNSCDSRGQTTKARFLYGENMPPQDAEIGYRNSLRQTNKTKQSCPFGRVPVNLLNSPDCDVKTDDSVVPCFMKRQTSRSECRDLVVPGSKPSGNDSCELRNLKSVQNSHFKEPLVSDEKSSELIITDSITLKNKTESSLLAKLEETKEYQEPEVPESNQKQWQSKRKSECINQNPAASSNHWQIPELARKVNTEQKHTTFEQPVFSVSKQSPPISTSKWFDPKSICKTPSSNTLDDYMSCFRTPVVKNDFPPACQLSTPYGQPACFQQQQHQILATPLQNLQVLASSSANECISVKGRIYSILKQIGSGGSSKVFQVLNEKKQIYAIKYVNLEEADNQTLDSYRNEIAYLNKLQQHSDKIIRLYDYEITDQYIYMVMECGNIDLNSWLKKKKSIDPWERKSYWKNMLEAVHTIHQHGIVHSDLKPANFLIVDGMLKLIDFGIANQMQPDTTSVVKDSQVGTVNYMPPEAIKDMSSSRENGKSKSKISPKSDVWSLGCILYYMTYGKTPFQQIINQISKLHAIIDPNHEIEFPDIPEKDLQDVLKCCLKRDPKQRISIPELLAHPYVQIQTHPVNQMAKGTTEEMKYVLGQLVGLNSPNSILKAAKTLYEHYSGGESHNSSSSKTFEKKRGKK
Protocol: To determine the ability of a compound represented by Chemical Formula 1 according to the present invention to inhibit TTK activity, the following experiment was conducted.
After that, the reaction was terminated by adding phosphoric acid to a concentration of 0.5%, and 10 of the reaction solution was dropped onto a P30 filter. […] The activity of TTK was measured through scintillation counting. The activity value from the group with no compound was set as 100% of control, and the degree of TTK inhibition by the compound was calculated.

Row | pIC50 [3] | Structure (SMILES) | IC50 [1] | IC50 [2]
1 |  | COc1cc(N2CCOCC2)ccc1Nc1nc(NC2CCCCC2)c2c(-c3cccc(C(N)=O)c3)n[nH]c2n1 [Compound 8-2, 3-(4-(Cyclohexylamino)-6-((2-methoxy-4-morpholinophenyl)amino)-1H-pyrazolo[3,4-d]pyrimidin-3-yl)benzamide] | > 1000 nM | > 1000 nM
2 |  | COc1cc(N2CCOCC2)ccc1Nc1nc(NC2CCCCC2)c2c(-c3cccc(NC(=O)C4CC4)c3)n[nH]c2n1 [Compound 8-4, N-(3-(4-(cyclohexylamino)-6-((2-methoxy-4-morpholinophenyl)amino)-1H-pyrazolo[3,4-d]pyrimidin-3-yl)phenyl)cyclopropanecarboxamide] | > 1000 nM | 500 to 1000 nM
3 |  | CNC(=O)c1cccc(-c2n[nH]c3nc(Nc4ccc(N5CCOCC5)cc4OC)nc(NC4CCCCC4)c23)c1 [Compound 8-5, 3-(4-(cyclohexylamino)-6-((2-methoxy-4-morpholinophenyl)amino)-1H-pyrazolo[3,4-d]pyrimidin-3-yl)-N-methylbenzamide] | > 1000 nM | > 1000 nM
4 | 7.00 to 7.52 | COc1cc(N2CCOCC2)ccc1Nc1nc(NC2CCCCC2)c2c(-c3cccc(NS(C)(=O)=O)c3)n[nH]c2n1 [Compound 8-6, N-(3-(4-(cyclohexylamino)-6-((2-methoxy-4-morpholinophenyl)amino)-1H-pyrazolo[3,4-d]pyrimidin-3-yl)phenyl)methanesulfonamide] | > 1000 nM | > 1000 nM
5 | 6.52 to 7.00 | COc1cc(N2CCOCC2)ccc1Nc1nc(NC2CCCCC2)c2c(-c3cnn(C)c3)n[nH]c2n1 [Compound 8-7, N^4-cyclohexyl-N^6-(2-methoxy-4-morpholinophenyl)-3-(1-methyl-1H-pyrazol-4-yl)-1H-pyrazolo[3,4-d]pyrimidine-4,6-diamine] | 500 to 1000 nM | 150 to 500 nM
6 | 7.00 to 7.52 | COc1cc(N2CCOCC2)ccc1Nc1nc(NC2CCCCC2)c2c(-c3cnn(C(F)F)c3)n[nH]c2n1 [Compound 8-12, N^4-cyclohexyl-3-(1-(difluoromethyl)-1H-pyrazol-4-yl)-N^6-(2-methoxy-4-morpholinophenyl)-1H-pyrazolo[3,4-d]pyrimidine-4,6-diamine] | 150 to 500 nM | 150 to 500 nM
7 | > 7.52 | COc1cc(N2CCOCC2)ccc1Nc1nc(NC2CCCCC2)c2c(-c3ccn(C)n3)n[nH]c2n1 [Compound 8-13, N^4-cyclohexyl-N^6-(2-methoxy-4-morpholinophenyl)-3-(1-methyl-1H-pyrazol-3-yl)-1H-pyrazolo[3,4-d]pyrimidine-4,6-diamine] | 500 to 1000 nM | 500 to 1000 nM
8 | 7.00 to 7.52 | COc1cc(N2CCOCC2)ccc1Nc1nc(NC2CCCCC2)c2c(-c3ccco3)n[nH]c2n1 [Compound 8-14, N^4-cyclohexyl-3-(furan-2-yl)-N^6-(2-methoxy-4-morpholinophenyl)-1H-pyrazolo[3,4-d]pyrimidine-4,6-diamine] | 150 to 500 nM | 150 to 500 nM
9 | > 7.52 | COc1cc(N2CCOCC2)ccc1Nc1nc(NC2CCCCC2)c2c(-c3cncs3)n[nH]c2n1 [Compound 8-15, N^4-cyclohexyl-N^6-(2-methoxy-4-morpholinophenyl)-3-(thiazol-5-yl)-1H-pyrazolo[3,4-d]pyrimidine-4,6-diamine] | 150 to 500 nM | 150 to 500 nM
10 | 7.00 to 7.52 | COc1cc(N2CCOCC2)ccc1Nc1nc(NC2CCCCC2)c2c(-c3ccc4[nH]cnc4c3)n[nH]c2n1 [Compound 8-16, 3-(1H-benzo[d]imidazol-5-yl)-N^4-cyclohexyl-N^6-(2-methoxy-4-morpholinophenyl)-1H-pyrazolo[3,4-d]pyrimidine-4,6-diamine] | < 150 nM | 500 to 1000 nM
11 |  | COc1cc(N2CCOCC2)ccc1Nc1nc(NC2CCCCC2)c2c(-c3ccc4[nH]ncc4c3)n[nH]c2n1 [Compound 8-17, N^4-cyclohexyl-3-(1H-indazol-5-yl)-N^6-(2-methoxy-4-morpholinophenyl)-1H-pyrazolo[3,4-d]pyrimidine-4,6-diamine] | 500 to 1000 nM | 500 to 1000 nM
12 | 7.00 to 7.52 | COc1cc(N2CCOCC2)ccc1Nc1nc(NC2CCCCC2)c2c(-c3ccc4nc(C)oc4c3)n[nH]c2n1 [Compound 8-18, N^4-cyclohexyl-N^6-(2-methoxy-4-morpholinophenyl)-3-(2-methylbenzooxazol-6-yl)-1H-pyrazolo[3,4-d]pyrimidine-4,6-diamine] | < 150 nM | 150 to 500 nM
13 | 7.00 to 7.52 | COc1cc(N2CCOCC2)ccc1Nc1nc(NC2CCCCC2)c2c(-c3cn(C)cn3)n[nH]c2n1 [Compound 8-19, N^4-cyclohexyl-N^6-(2-methoxy-4-morpholinophenyl)-3-(1-methyl-1H-imidazol-4-yl)-1H-pyrazolo[3,4-d]pyrimidine-4,6-diamine] | 500 to 1000 nM | 150 to 500 nM
14 | > 7.52 | COc1cc(N2CCOCC2)ccc1Nc1nc(NC2CCCCC2)c2c(-c3cnoc3)n[nH]c2n1 [Compound 8-20, N^4-cyclohexyl-3-(isoxazol-4-yl)-N^6-(2-methoxy-4-morpholinophenyl)-1H-pyrazolo[3,4-d]pyrimidine-4,6-diamine] | < 150 nM | < 150 nM
15 | 7.00 to 7.52 | COc1cc(N2CCOCC2)ccc1Nc1nc(NC2CCOCC2)c2c(-c3cnoc3)n[nH]c2n1 [Compound 8-21, 3-(Isoxazol-4-yl)-N^6-(2-methoxy-4-morpholinophenyl)-N^4-(tetrahydro-2H-pyran-4-yl)-1H-pyrazolo[3,4-d]pyrimidine-4,6-diamine] | 500 to 1000 nM | 500 to 1000 nM
16 | > 7.52 | COc1cc(N2CCOCC2)ccc1Nc1nc(NC2CCOCC2)c2c(-c3ncco3)n[nH]c2n1 [Compound 8-22, N^6-(2-methoxy-4-morpholinophenyl)-3-(oxazol-2-yl)-N^4-(tetrahydro-2H-pyran-4-yl)-1H-pyrazolo[3,4-d]pyrimidine-4,6-diamine] | < 150 nM | 500 to 1000 nM
17 | > 7.52 | COc1cc(N2CCOCC2)ccc1Nc1nc(NC2CCOCC2)c2c(-c3cnn(C)c3)n[nH]c2n1 [Compound 8-23, N^6-(2-methoxy-4-morpholinophenyl)-3-(1-methyl-1H-pyrazol-4-yl)-N^4-(tetrahydro-2H-pyran-4-yl)-1H-pyrazolo[3,4-d]pyrimidine-4,6-diamine] | 150 to 500 nM | 500 to 1000 nM
18 | > 7.52 | COc1cc(N2CCOCC2)ccc1Nc1nc(NC2CCOCC2)c2c(-c3cnn(C(F)F)c3)n[nH]c2n1 [Compound 8-24, 3-(1-(difluoromethyl)-1H-pyrazol-4-yl)-N^6-(2-methoxy-4-morpholinophenyl)-N^4-(tetrahydro-2H-pyran-4-yl)-1H-pyrazolo[3,4-d]pyrimidine-4,6-diamine] | 150 to 500 nM | 150 to 500 nM
19 | > 7.52 | COc1cc(N2CCOCC2)ccc1Nc1nc(NC2CCOCC2)c2c(-c3ccn(C)n3)n[nH]c2n1 [Compound 8-25, N^6-(2-methoxy-4-morpholinophenyl)-3-(1-methyl-1H-pyrazol-3-yl)-N^4-(tetrahydro-2H-pyran-4-yl)-1H-pyrazolo[3,4-d]pyrimidine-4,6-diamine] | 150 to 500 nM | 150 to 500 nM
20 | 6.52 to 7.00 | Cn1cc(-c2n[nH]c3nc(NC4CCC(N5CCOCC5)CC4)nc(NC4CCCCC4)c23)cn1 (stereo not shown) [Compound 8-30, N^4-cyclohexyl-3-(1-methyl-1H-pyrazol-4-yl)-N^6-(4-morpholinocyclohexyl)-1H-pyrazolo[3,4-d]pyrimidine-4,6-diamine] |  | > 1000 nM
